Source: patent publication US20170342026A1, “ISOPROPOXY-PHENYLGUANIDINE SERIES SALT AND APPLICATION THEREOF IN PREPARING GROWTH PROMOTERS FOR ANIMAL FEED” (GUANGZHOU INSIGHTER BIOTECHNOLOGY CO., LTD., priority 2015, published 2017)

Key:
Format in all cases: in vivo
[1] = test system: broilers; assay: Effects of the series of salts of isopropoxy-phenylguanidine on production performance of broilers; settings: 50 ppm in feed, 30 days; for Average daily weight gain / Average feed conversion ratio / Survival rate (%): 1-day-old broilers; for effect on production performance compared with hydrochloride: broilers
Experimental: One thousand and five hundred (1500) 1-day-old broilers were divided into 15 groups and each group with 100 broilers. Different types of salts of isopropoxy-phenylguanidine were added to the same basic diets. The broilers were free feeding and drinking and continued feeding for 30 days, then to collect statistics of the production performance and the survival rate of broilers in each group.

[2] = test system: Duroc×Landrace×Large White piglets; assay: Effects of the salts of isopropoxy-phenylguanidine in a feed for pigs; settings: 100 ppm in feed; for Average daily weight gain / Feed conversion ratio: piglets aged 28 days; for effect on production performance compared with hydrochloride: pigs, 28 days
Experimental: One hundred and twenty (120) Duroc×Landrace×Large White piglets aged 28 days with similar body weight were randomly divided into 6 groups, each with 20 pigs. Different types of salts of isopropoxy-phenylguanidine were added to the feeds respectively in accordance with Table 3. The pigs were free feeding and drinking during the test period of 28 days.

[3] = test system: Cherry Valley ducks; assay: Effects of the salts of isopropoxy-phenylguanidine in a feed for ducks; settings: 50 ppm in feed, 28 days; for Average daily weight gain / Feed conversion ratio: ducks aged 1 day; for effect on production performance compared with hydrochloride: ducks
Experimental: Six hundred (600) Cherry Valley ducks aged 1 day were randomly divided into 6 groups, each with 100 ducks. Different types of salts of isopropoxy-phenylguanidine were added to the feed according to Table 4. The ducks were free feeding and drinking during the test period of 28 days.

[4] = test system: broilers; assay: Effects of different concentrations of isopropoxy-phenylguanidine methanesulfonate on production performance of broilers
Experimental: Eight hundred (800) broilers aged 1 day were divided into 8 groups and each group with 100 broilers. Different concentrations of isopropoxy-phenylguanidine methanesulfonate were added to the same basic diets. The broilers were free feeding and drinking and continued feeding for 30 days, then to collect statistics of the production performance and the survival rate of broilers in each group.

[5] = broilers, 5 ppm in feed, 30 days
[6] = broilers, 10 ppm in feed, 30 days
[7] = broilers, 20 ppm in feed, 30 days
[8] = broilers, 50 ppm in feed, 30 days
[9] = broilers, 100 ppm in feed, 30 days
[10] = broilers, 200 ppm in feed, 30 days
[11] = broilers, 500 ppm in feed, 30 days

CC(C)Oc1ccc(C=NNC(=N)NN=Cc2ccc(OC(C)C)cc2)cc1.O=S(=O)(O)CCO [2,2′-bis[[4-(isopropoxy)phenyl]methylene]-diaminoguanidine 2-hydroxyethylsulfonate]
Average daily weight gain [1]: 49.1 g | Average feed conversion ratio [1]: 1.987 | Survival rate (%) [1]: 100% | effect on production performance compared with hydrochloride [1]: better than hydrochloride | Average daily weight gain [2]: 537 g | Feed conversion ratio [2]: 1.697 | effect on production performance compared with hydrochloride [2]: better than hydrochloride | Average daily weight gain [3]: 67.9 g | Feed conversion ratio [3]: 1.835 | effect on production performance compared with hydrochloride [3]: better than hydrochloride

CC(C)Oc1ccc(C=NNC(=N)NN=Cc2ccc(OC(C)C)cc2)cc1.CS(=O)(=O)O [2,2′-bis[[4-(isopropoxy)phenyl]methylene]-diaminoguanidine methanesulfonate]
Average daily weight gain [1]: 48.8 g | Average feed conversion ratio [1]: 1.999 | Survival rate (%) [1]: 100% | effect on production performance compared with hydrochloride [1]: better than hydrochloride | Daily weight gain [4, 5]: 42.3 g | Feed conversion ratio [4, 5]: 2.150 | Survival rate (%) [4, 5]: 100% | Daily weight gain [4, 6]: 43.4 g | Feed conversion ratio [4, 6]: 2.138 | Survival rate (%) [4, 6]: 100% | Daily weight gain [4, 7]: 44.5 g | Feed conversion ratio [4, 7]: 2.119 | Survival rate (%) [4, 7]: 100% | Daily weight gain [4, 8]: 48.9 g | Feed conversion ratio [4, 8]: 2.087 | Survival rate (%) [4, 8]: 100% | Daily weight gain [4, 9]: 49.6 g | Feed conversion ratio [4, 9]: 2.076 | Survival rate (%) [4, 9]: 100% | Daily weight gain [4, 10]: 49.2 g | Feed conversion ratio [4, 10]: 2.071 | Survival rate (%) [4, 10]: 100% | Daily weight gain [4, 11]: 49.5 g | Feed conversion ratio [4, 11]: 2.073 | Survival rate (%) [4, 11]: 100% | effect on production performance of broilers ([4]; different concentrations (5-500 ppm) in feed, 30 days): significantly improve the production performance | negative impacts on the production performance ([4]; high concentrations in feed, broilers): no negative impacts | Average daily weight gain [2]: 529 g | Feed conversion ratio [2]: 1.713 | effect on production performance compared with hydrochloride [2]: better than hydrochloride | Average daily weight gain [3]: 68.4 g | Feed conversion ratio [3]: 1.831 | effect on production performance compared with hydrochloride [3]: better than hydrochloride

CC(=O)O.CC(C)Oc1ccc(C=NNC(=N)NN=Cc2ccc(OC(C)C)cc2)cc1 [isopropoxy-phenylguanidine acetate, 2,2′-bis[[4-(isopropoxy)phenyl]methylene]-diaminoguanidine acetate]
Average daily weight gain [1]: 43.2 g | Average feed conversion ratio [1]: 2.129 | Survival rate (%) [1]: 99%

CC(C)Oc1ccc(C=NNC(=N)NN=Cc2ccc(OC(C)C)cc2)cc1.O=C(O)c1ccccc1 [isopropoxy-phenylguanidine benzoate, 2,2′-bis[[4-(isopropoxy)phenyl]methylene]-diaminoguanidine benzoate]
Average daily weight gain [1]: 44.7 g | Average feed conversion ratio [1]: 2.126 | Survival rate (%) [1]: 100%

CC(C)Oc1ccc(C=NNC(=N)NN=Cc2ccc(OC(C)C)cc2)cc1.O=C(O)CC(O)(CC(=O)O)C(=O)O [isopropoxy-phenylguanidine citrate, 2,2′-bis[[4-(isopropoxy)phenyl]methylene]-diaminoguanidine citrate]
Average daily weight gain [1]: 44.5 g | Average feed conversion ratio [1]: 2.125 | Survival rate (%) [1]: 100% | Average daily weight gain [2]: 491 g | Feed conversion ratio [2]: 1.803

CC(C)Oc1ccc(C=NNC(=N)NN=Cc2ccc(OC(C)C)cc2)cc1.O=C(O)/C=C/C(=O)O [isopropoxy-phenylguanidine fumarate, 2,2′-bis[[4-(isopropoxy)phenyl]methylene]-diaminoguanidine fumarate]
Average daily weight gain [1]: 44.1 g | Average feed conversion ratio [1]: 2.136 | Survival rate (%) [1]: 99%

CC(C)Oc1ccc(C=NNC(=N)NN=Cc2ccc(OC(C)C)cc2)cc1.Cl [isopropoxy-phenylguanidine hydrochloride, 2,2′-bis[[4-(isopropoxy)phenyl]methylene]-diaminoguanidine hydrochloride, reference compound]
Average daily weight gain [1]: 46.6 g | Average feed conversion ratio [1]: 2.087 | Survival rate (%) [1]: 100% | Average daily weight gain [2]: 512 g | Feed conversion ratio [2]: 1.754 | Average daily weight gain [3]: 65.3 g | Feed conversion ratio [3]: 1.874

CC(C)Oc1ccc(C=NNC(=N)NN=Cc2ccc(OC(C)C)cc2)cc1.CC(O)C(=O)O [isopropoxy-phenylguanidine lactate, 2,2′-bis[[4-(isopropoxy)phenyl]methylene]-diaminoguanidine DL-lactate]
Average daily weight gain [1]: 47.9 g | Average feed conversion ratio [1]: 2.006 | Survival rate (%) [1]: 100% | effect on production performance compared with hydrochloride [1]: better than hydrochloride | Average daily weight gain [2]: 535 g | Feed conversion ratio [2]: 1.701 | effect on production performance compared with hydrochloride [2]: better than hydrochloride | Average daily weight gain [3]: 67.8 g | Feed conversion ratio [3]: 1.827 | effect on production performance compared with hydrochloride [3]: better than hydrochloride

CC(C)Oc1ccc(C=NNC(=N)NN=Cc2ccc(OC(C)C)cc2)cc1.O=C(O)/C=C\C(=O)O [isopropoxy-phenylguanidine maleate, 2,2′-bis[[4-(isopropoxy)phenyl]methylene]-diaminoguanidine maleate]
Average daily weight gain [1]: 44.1 g | Average feed conversion ratio [1]: 2.137 | Survival rate (%) [1]: 100%

CC(C)Oc1ccc(C=NNC(=N)NN=Cc2ccc(OC(C)C)cc2)cc1.O=C(O)C(=O)O [isopropoxy-phenylguanidine oxalate, 2,2′-bis[[4-(isopropoxy)phenyl]methylene]-diaminoguanidine oxalate]
Average daily weight gain [1]: 43.1 g | Average feed conversion ratio [1]: 2.145 | Survival rate (%) [1]: 100%

CC(C)Oc1ccc(C=NNC(=N)NN=Cc2ccc(OC(C)C)cc2)cc1.O=P(O)(O)O [isopropoxy-phenylguanidine phosphate, 2,2′-bis[[4-(isopropoxy)phenyl]methylene]-diaminoguanidine phosphate]
Average daily weight gain [1]: 44.0 g | Average feed conversion ratio [1]: 2.139 | Survival rate (%) [1]: 100% | Average daily weight gain [3]: 61.2 g | Feed conversion ratio [3]: 1.926

CC(C)Oc1ccc(C=NNC(=N)NN=Cc2ccc(OC(C)C)cc2)cc1.O=C(O)CCC(=O)O [isopropoxy-phenylguanidine succinate, 2,2′-bis[[4-(isopropoxy)phenyl]methylene]-diaminoguanidine succinate]
Average daily weight gain [1]: 43.6 g | Average feed conversion ratio [1]: 2.143 | Survival rate (%) [1]: 100%

CC(C)Oc1ccc(C=NNC(=N)NN=Cc2ccc(OC(C)C)cc2)cc1.O=S(=O)(O)O [isopropoxy-phenylguanidine sulfate, 2,2′-bis[[4-(isopropoxy)phenyl]methylene]-diaminoguanidine sulfate]
Average daily weight gain [1]: 43.7 g | Average feed conversion ratio [1]: 2.131 | Survival rate (%) [1]: 100%

CC(C)Oc1ccc(C=NNC(=N)NN=Cc2ccc(OC(C)C)cc2)cc1.O=C(O)C(O)C(O)C(=O)O [isopropoxy-phenylguanidine tartrate, 2,2′-bis[[4-(isopropoxy)phenyl]methylene]-diaminoguanidine tartrate]
Average daily weight gain [1]: 43.9 g | Average feed conversion ratio [1]: 2.131 | Survival rate (%) [1]: 98%
